pIC50, pKd: −log10 of the molar value.
Key:
[1] = target: GDP-bound HRAS wild-type protein (Homo sapiens, UniProt P01112); experiment: Binding to HRAS by surface plasmon resonance (SPR), Single Cycle Kinetics; settings: SPR, GDP-bound HRAS wild-type protein vs GDP-bound KRAS wild-type protein
[2] = system: human lung cancer strain NCI-H441;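 also: cell proliferation inhibition after four days measured by CellTiter-Glo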
[3] = target: GDP-bound NRAS wild-type protein (Homo sapiens, UniProt P01111); experiment: Binding to NRAS by surface plasmon resonance (SPR), Single Cycle Kinetics; settings: SPR, GDP-bound NRAS wild-type protein vs GDP-bound KRAS wild-type protein
[4] = target: GDP-bound KRAS wild-type protein (Homo sapiens, UniProt P01116); experiment: Binding to KRAS by surface plasmon resonance (SPR), Single Cycle Kinetics; settings: SPR, Single Cycle Kinetics, GDP-bound KRAS wild-type protein; read-out: KRAS KD
Chain of GDP-bound KRAS wild-type protein (P01116 whole entry): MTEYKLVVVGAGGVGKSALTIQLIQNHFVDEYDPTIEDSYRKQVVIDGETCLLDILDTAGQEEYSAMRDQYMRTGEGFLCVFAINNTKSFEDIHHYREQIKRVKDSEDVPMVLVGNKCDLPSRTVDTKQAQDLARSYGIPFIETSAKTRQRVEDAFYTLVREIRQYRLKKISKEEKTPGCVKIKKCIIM

Chain of GDP-bound NRAS wild-type protein (P01111 whole entry): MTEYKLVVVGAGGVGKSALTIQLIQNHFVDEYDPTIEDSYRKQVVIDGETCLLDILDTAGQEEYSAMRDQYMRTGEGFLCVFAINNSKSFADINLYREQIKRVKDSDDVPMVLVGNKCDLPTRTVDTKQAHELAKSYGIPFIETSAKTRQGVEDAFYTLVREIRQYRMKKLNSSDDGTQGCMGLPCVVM
Chain of GDP-bound HRAS wild-type protein (P01112 whole entry): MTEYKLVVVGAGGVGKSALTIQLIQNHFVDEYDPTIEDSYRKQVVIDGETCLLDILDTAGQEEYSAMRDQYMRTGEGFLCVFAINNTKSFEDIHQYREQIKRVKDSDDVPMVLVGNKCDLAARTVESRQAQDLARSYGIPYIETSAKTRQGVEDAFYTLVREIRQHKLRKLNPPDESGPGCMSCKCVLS

Row | Structure (SMILES) | pIC50 [2] | pKd [4] | HRAS/KRAS (ratio of KD value for HRAS to KD value for KRAS) [1] | NRAS/KRAS (ratio of KD value for NRAS to KD value for KRAS) [3]
1 | CCC[C@H]1C(=O)N[C@@H](CC(C)C)C(=O)N(C2CC2)CC(=O)N(C)[C@H]2C/C=C\CCN(C2=O)[C@@H](Cc2ccc(C)cc2)C(=O)N(C)CC(=O)N[C@@H](CCc2cc(F)c(C(F)(F)F)c(F)c2)C(=O)N2C[C@H](OCC)C[C@H]2C(=O)NC2(CC(C)(C)C2)C(=O)N(C)[C@@H](C2CCCC2)C(=O)N(C)[C@H](C(=O)N(C)C)CC(=O)N1C [PP2508] | 6.91 | 8.47 | B (a compound having 3 or more and less than 10 is denoted as B) | A (a compound having 10 or more and less than 20 is denoted as A)
2 | CCC[C@H]1C(=O)N[C@@H](CC(C)C)C(=O)N(C2CC2)CC(=O)N(C)[C@H]2C/C=C\CCN(C2=O)[C@@H](Cc2ccc(C)cc2)C(=O)N(C)CC(=O)N[C@@H](CCc2ccc(C(F)(F)F)c(OC)c2)C(=O)N2C[C@H](OCC)C[C@H]2C(=O)NC2(CC(C)(C)C2)C(=O)N(C)[C@@H](C2CCCC2)C(=O)N(C)[C@H](C(=O)N(C)C)CC(=O)N1C [PP2510] | 6.74 | 8.41 | B (a compound having 3 or more and less than 10 is denoted as B) | A (a compound having 10 or more and less than 20 is denoted as A)
3 | CC[C@H](C)[C@@H]1NC(=O)[C@H](COC)N(C)C(=O)C[C@@H](C(=O)N(C)C)N(C)C(=O)[C@H](C2CCCC2)N(C)C(=O)C2(CC(C)(C)C2)NC(=O)[C@@H]2C[C@@H](OC(C)C)CN2C(=O)[C@H](CCc2ccc(Cl)c(Cl)c2)NC(=O)CN(C)C(=O)[C@H](CC2CCCCC2)N2CC/C=C\C[C@@H](C2=O)N(C)C(=O)CN(C2CC2)C1=O [PP2513] | 6.52 | 8.59 | A (a compound having 10 or more and less than 20 is denoted as A) | A (a compound having 10 or more and less than 20 is denoted as A)
4 | CCC(CC)[C@H]1C(=O)N(C)[C@H](C(=O)N(C)C)CC(=O)N(C)[C@@H](COC)C(=O)N[C@@H]([C@@H](C)CC)C(=O)N(C2CC2)CC(=O)N(C)[C@H]2C/C=C\CCN(C2=O)[C@@H](CC2CCCCC2)C(=O)N(C)CC(=O)N[C@@H](CCc2cc(F)c(C(F)(F)F)c(F)c2)C(=O)N2C[C@H](OC(C)C)C[C@H]2C(=O)NC2(CC(C)(C)C2)C(=O)N1C [PP2515] | 6.42 | 8.29 | A (a compound having 10 or more and less than 20 is denoted as A) | A (a compound having 10 or more and less than 20 is denoted as A)
5 | CCC[C@H]1C(=O)N[C@@H](CC(C)C)C(=O)N(CC)CC(=O)N(C)[C@H]2C/C=C\CCN(C2=O)[C@@H](Cc2ccc(C)cc2)C(=O)N(C)CC(=O)N[C@@H](CCc2cc(F)c(C(F)(F)F)c(F)c2)C(=O)N2C[C@H](OCC)C[C@H]2C(=O)NC2(CC(C)(C)C2)C(=O)N(C)[C@@H](C2CCCC2)C(=O)N(C)[C@H](C(=O)N(C)C)CC(=O)N1C [PP2516] | 6.91 | 8.54 | B (a compound having 3 or more and less than 10 is denoted as B) | A (a compound having 10 or more and less than 20 is denoted as A)
6 | CCC[C@H]1C(=O)N[C@@H](CC(C)C)C(=O)N(CCOC)CC(=O)N(C)[C@H]2C/C=C\CCN(C2=O)[C@@H](Cc2ccc(C)cc2)C(=O)N(C)CC(=O)N[C@@H](CCc2cc(F)c(C(F)(F)F)c(F)c2)C(=O)N2C[C@H](OCC)C[C@H]2C(=O)NC2(CC(C)(C)C2)C(=O)N(C)[C@@H](C2CCCC2)C(=O)N(C)[C@H](C(=O)N(C)C)CC(=O)N1C [PP2520] | 6.68 | 8.48 | A (a compound having 10 or more and less than 20 is denoted as A) | A (a compound having 10 or more and less than 20 is denoted as A)

The next compounds have a higher pIC50 [2] than those just listed; values first:

Row | pIC50 [2] | pKd [4] | Structure (SMILES) | HRAS/KRAS (ratio of KD value for HRAS to KD value for KRAS) [1] | NRAS/KRAS (ratio of KD value for NRAS to KD value for KRAS) [3]
7 | 6.96 | 8.70 | C#CCN1CC(=O)N(C)[C@H]2C/C=C\CCN(C2=O)[C@@H](Cc2ccc(C)cc2)C(=O)N(C)CC(=O)N[C@@H](CCc2cc(F)c(C(F)(F)F)c(F)c2)C(=O)N2C[C@H](OCC)C[C@H]2C(=O)NC2(CC(C)(C)C2)C(=O)N(C)[C@@H](C2CCCC2)C(=O)N(C)[C@H](C(=O)N(C)C)CC(=O)N(C)[C@@H](CCC)C(=O)N[C@@H](CC(C)C)C1=O [PP2512] | A (a compound having 10 or more and less than 20 is denoted as A) | A (a compound having 10 or more and less than 20 is denoted as A)
8 | 7.06 | 8.62 | C#CCN1CC(=O)N(C)[C@H]2C/C=C\CCN(C2=O)[C@@H](Cc2ccc(C)cc2)C(=O)N(C)CC(=O)N[C@@H](CCc2ccc(C(F)(F)F)c(OC)c2)C(=O)N2C[C@H](OCC)C[C@H]2C(=O)NC2(CC(C)(C)C2)C(=O)N(C)[C@@H](C2CCCC2)C(=O)N(C)[C@H](C(=O)N(C)C)CC(=O)N(C)[C@@H](CCC)C(=O)N[C@@H](CC(C)C)C1=O [PP2514] | B (a compound having 3 or more and less than 10 is denoted as B) | A (a compound having 10 or more and less than 20 is denoted as A)
9 | 7.09 | 8.48 | CCC[C@H]1C(=O)N[C@@H](CC(C)C)C(=O)N(CC)CC(=O)N(C)[C@H]2C/C=C\CCN(C2=O)[C@@H](Cc2ccc(C)cc2)C(=O)N(C)CC(=O)N[C@@H](CCc2ccc(C(F)(F)F)c(OC)c2)C(=O)N2C[C@H](OCC)C[C@H]2C(=O)NC2(CC(C)(C)C2)C(=O)N(C)[C@@H](C2CCCC2)C(=O)N(C)[C@H](C(=O)N(C)C)CC(=O)N1C [PP2518] | A (a compound having 10 or more and less than 20 is denoted as A) | A (a compound having 10 or more and less than 20 is denoted as A)
10 | 7.97 | 9.89 | CC[C@H](C)[C@@H]1NC(=O)[C@H](COC)N(C)C(=O)C[C@@H](C(=O)N(C)CC)N(C)C(=O)[C@H](C2CCCC2)N(C)C(=O)C2(CC(C)(C)C2)NC(=O)[C@@H]2C[C@H](C)CN2C(=O)[C@H](CCc2ccc(C(F)(F)F)c(Cl)c2)NC(=O)CN(C)C(=O)[C@H](Cc2ccc(C)cc2)N2CC/C=C\C[C@@H](C2=O)N(C)C(=O)CN(C)C1=O [PP2506] | A (a compound having 10 or more and less than 20 is denoted as A) | A (a compound having 10 or more and less than 20 is denoted as A)
11 | 8.05 | 10.21 | CCO[C@@H]1C[C@H]2C(=O)NC3(CC(C)(C)C3)C(=O)N(C)[C@@H](C3CCCC3)C(=O)N(C)[C@H](C(=O)N(C)CC)CC(=O)N(C)[C@@H](COC)C(=O)N[C@@H]([C@@H](C)CC)C(=O)N(C)CC(=O)N(C)[C@H]3C/C=C\CCN(C3=O)[C@@H](Cc3ccc(C)cc3)C(=O)N(C)CC(=O)N[C@@H](CCc3ccc(C(F)(F)F)c(Cl)c3)C(=O)N2C1 [PP2507] | A (a compound having 10 or more and less than 20 is denoted as A) | AA (a compound having 20 or more is denoted as AA)
